Earlier results as cited in patent publication EP4631497A1, “LIPOSOMAL COMPOSITION FOR TOPICAL ADMINISTRATION” (priority 2024, dated 2025).
Read-outs that look alike come from different tables or passages of the source.

SMILES	Wasserlöslichkeit (bei 25°C)	Wasserlöslichkeit (water) [mg/mL]
Oc1ccc(C=Cc2cc(O)cc(O)c2)cc1 [Resveratrol]	< 0,1 mg/ml	
C[C@@H]1O[C@@H](O[C@H]2[C@H](Oc3cc(O)c4c(c3)O[C@H](c3ccc(O)cc3)CC4=O)O[C@H](CO)[C@@H](O)[C@@H]2O)[C@H](O)[C@H](O)[C@H]1O [Naringin]		< 1
O=C1c2c(O)cc(O)cc2O[C@H](c2ccc(O)c(O)c2)[C@H]1O [Taxifolin]	< 1 mg/mL	
O=C(CCc1ccc(O)cc1)c1c(O)cc(O)cc1O [Phloretin]	< 0,1 mg/ml	
